Values of other authors in publication PMC7933317 (Probiotics and antimicrobial proteins, 2021).

Tested on: human red blood cells (RBCs)
Settings: over the same concentration range; ref [30]

ALWKKLLKKLLKSAKKLG [C18G]
hemolysis of human RBCs: < 10%
